In brackets after ≈: the same amount, converted by molar mass. Where two headings read alike, the source gives them in different places.
Tests used:
[1] = Initial rate of prodrug hydrolysis in human liver S9 (HPLC); assay type: in vitro ADME; conditions: for Hydrolysis liver: IVIVE model input, determined experimentally
Description: (§1) As expected, rapid enzyme-catalysed hydrolysis of the 5’-carbonate group of 1–8 was observed, evident from the short plasma half-lives (<12 h) and relatively rapid initial hydrolysis rates in liver S9 and muscle S9 fractions (evaluated over a timeframe in which the carbamate masking group remains intact). […] Although chemically similar to capecitabine at the carbamate moiety, the plasma half-lives of longer-chain carbamates 12–16 were generally shorter. Initial hydrolysis rates in liver and muscle S9 fractions were within a sixfold range of capecitabine as measured in our hands, with the longer C5 to C8 analogues (13–16) undergoing hydrolysis most efficiently in liver S9 (Supplementary Figure 21). […] In all cases, the hydrolysis of the carbonate moiety of 1–8 was considerably faster in liver than muscle.
(§2) Reaction mixtures containing mixed gender human skeletal muscle S9 (10.47 mg mL^−1, Bioreclamation) or phosphate buffer (0.1 M, pH 7.4) and pooled, mixed gender liver S9 (2.0 mg mL^−1, Xenotech) were pre-incubated at 37 °C for 5 min. Reactions were initiated by the addition of prodrugs 1–8 (1 mM + 5% DMSO). After incubation at 37 °C, aliquots were taken at time points measuring initial rate (Muscle S9: 1–3: 0.5, 10, 20, 30, 40, 50, and 60 min; 4: 0.5, 20, 40, 60, 80, 100, and 120 min; 5–6: 0.5, 30, 60, 90, 150, and 180 min; 7–8: 0.5 min, 30 min, 1 h, 3 h, 4 h, 5 h) (Liver S9: 1–2: 0.5, 1, 2, 3, 4, and 5 min; 3–6: 0.5, 2, 4, 6, 8, and 10 min; 7–8: 0.5, 5, 10, 15, 20, 25, 30, and 60 min). These aliquots were quenched in two volumes of ice-cold methanol. The quenched aliquots were then centrifuged at 16,873 × g for 5 min. The supernatant was diluted 10-fold into phosphate buffer (0.1 M, pH 7.4) and analysed by HPLC method described within Supplementary Information (monitoring starting material depletion at 305 nm). […]

[2] = Initial rate of prodrug hydrolysis in human skeletal muscle S9 (HPLC); assay type: in vitro ADME; conditions: for Hydrolysis muscle: IVIVE model input, determined experimentally
Description: as §1, §2

[3] = tested on: human immunodeficiency virus type 1 reverse transcriptase; conditions: intracellular FTC-TP; cited from earlier work
[4] = Prodrug hydrolysis in undiluted human plasma (HPLC, half-life); assay type: in vitro ADME; conditions: 1 mM, 37 °C
Description: as §1
Reaction mixtures containing pooled mixed gender human plasma (Bioreclamation) were pre-incubated at 37 °C for 5 min. Reactions were initiated by the addition of prodrugs 1–8 (1 mM + 5% DMSO). […] The supernatant was diluted 10-fold into phosphate buffer (0.1 M, pH 7.4) and analysed by HPLC method described within Supplementary Information (monitoring starting material depletion at 305 nm). […]
323 buffer (0.1 M, pH 7.4) and analyzed by the HPLC method described above monitoring […]

[5] = IVIVE model input parameter (Supplementary Table 4); source not given; cited from earlier work
[6] = 25 °C; cited from earlier work
[7] = cited from earlier work
viral replication = conditions: plasma concentration; cited from earlier work
[8] = oral 400mg FTC, human clinical data, mean (minimum-maximum)
[9] = oral FTC at steady state, average of 3 independent clinical studies, mean (± SD), ref Supplementary References 3-5

CCCCOC(=O)Nc1nc(=O)n([C@@H]2CS[C@H](CO)O2)cc1F [prodrug 12, Butyl (5-fluoro-1-((2R,5S)-2-(hydroxymethyl)-1,3-oxathiolan-5-yl)-2-oxo-1,2-dihydropyrimidin-4-yl)carbamate]
melting point: 47 °C
Hydrolysis liver [1]: 0.0125 h⁻¹
Hydrolysis muscle [2]: 0.001 h⁻¹

Nc1nc(=O)n([C@@H]2CS[C@H](COP(=O)(O)OP(=O)(O)OP(=O)(O)O)O2)cc1F [FTC-TP, FTC triphosphate]
intracellular half-maximal inhibitory concentration (IC50) [3]: 150 fmol per 10^6 cells

CCCCOC(=O)Nc1nc(=O)n([C@@H]2CS[C@H](COC(=O)OCCCC)O2)cc1F [prodrug 4, Butyl (1-((2R,5S)-2-(((butoxycarbonyl)oxy)methyl)-1,3-oxathiolan-5-yl)-5-fluoro-2-oxo-1,2-dihydropyrimidin-4-yl)carbamate]
Hydrolysis liver [1]: 0.5786 h⁻¹
Hydrolysis muscle [2]: 0.0290 h⁻¹

CCCCCCCCOC(=O)Nc1nc(=O)n([C@@H]2CS[C@H](CO)O2)cc1F [prodrug 16, Octyl (5-fluoro-1-((2R,5S)-2-(hydroxymethyl)-1,3-oxathiolan-5-yl)-2-oxo-1,2-dihydropyrimidin-4-yl)carbamate]
Hydrolysis liver [1]: 0.0282 h⁻¹
Hydrolysis muscle [2]: 0.004 h⁻¹

CCCOC(=O)Nc1nc(=O)n([C@@H]2CS[C@H](CO)O2)cc1F [prodrug 11, Propyl (5-fluoro-1-((2R,5S)-2-(hydroxymethyl)-1,3-oxathiolan-5-yl)-2-oxo-1,2-dihydropyrimidin-4-yl)carbamate]
melting point: 82 to 86 °C

CCCCCCOC(=O)Nc1nc(=O)n([C@@H]2CS[C@H](COC(=O)OCCCCCC)O2)cc1F [prodrug 6, Hexyl (5-fluoro-1-((2R,5S)-2-((((hexyloxy)carbonyl)oxy)methyl)-1,3-oxathiolan-5-yl)-2-oxo-1,2-dihydropyrimidin-4-yl)carbamate]
melting point: 110 °C

CCCCCCCOC(=O)Nc1nc(=O)n([C@@H]2CS[C@H](CO)O2)cc1F [prodrug 15, Heptyl (5-fluoro-1-((2R,5S)-2-(hydroxymethyl)-1,3-oxathiolan-5-yl)-2-oxo-1,2-dihydropyrimidin-4-yl)carbamate]
melting point: 46 °C

CCCCCOC(=O)Nc1nc(=O)n([C@@H]2CS[C@H](CO)O2)cc1F [prodrug 13, Pentyl (5-fluoro-1-((2R,5S)-2-(hydroxymethyl)-1,3-oxathiolan-5-yl)-2-oxo-1,2-dihydropyrimidin-4-yl)carbamate]
melting point: 44 to 47 °C

COC(=O)Nc1nc(=O)n([C@@H]2CS[C@H](COC(=O)OC)O2)cc1F [prodrug 1, Methyl (5-fluoro-1-((2R,5S)-2-(((methoxycarbonyl)oxy)methyl)-1,3-oxathiolan-5-yl)-2-oxo-1,2-dihydropyrimidin-4-yl)carbamate]
melting point: 97 to 103 °C

CCCCCCCCOC(=O)Nc1nc(=O)n([C@@H]2CS[C@H](COC(=O)OCCCCCCCC)O2)cc1F [prodrug 8, Octyl (5-fluoro-1-((2R,5S)-2-((((octyloxy)carbonyl)oxy)methyl)-1,3-oxathiolan-5-yl)-2-oxo-1,2-dihydropyrimidin-4-yl)carbamate]
Hydrolysis liver [1]: 0.0694 h⁻¹
Hydrolysis muscle [2]: 0.0067 h⁻¹

COC(=O)Nc1nc(=O)n([C@@H]2CS[C@H](CO)O2)cc1F [prodrug 9, Methyl (5-fluoro-1-((2R,5S)-2-(hydroxymethyl)-1,3-oxathiolan-5-yl)-2-oxo-1,2-dihydropyrimidin-4-yl)carbamate]
melting point: 85 to 89 °C

CCCOC(=O)Nc1nc(=O)n([C@@H]2CS[C@H](COC(=O)OCCC)O2)cc1F [prodrug 3, Propyl (5-fluoro-2-oxo-1-((2R,5S)-2-(((propoxycarbonyl)oxy)methyl)-1,3-oxathiolan-5-yl)-1,2-dihydropyrimidin-4-yl)carbamate]
plasma half-life (hydrolysis of 5'-carbonate moiety) [4]: shortest
melting point: 102 to 107 °C
5'-carbonate hydrolysis rate in liver S9 ([1]; 1 mM, 37 °C, across series 1-8): maximum
5'-carbonate hydrolysis rate in muscle S9 ([2]; 1 mM, 37 °C, across series 1-8): maximum

Nc1nc(=O)n([C@@H]2CS[C@H](CO)O2)cc1F [FTC, emtricitabine]
Plasma Cl [5]: 19.35 L/h
water solubility [6]: 112 mg/mL (≈ 453 mM)
AUC, observed [7, 8]: 16484 (11524-21388) ng/h/mL
Cmax, observed [7, 8]: 2968 (1582-4165) ng/mL
Cmin, observed [7, 8]: 63 (48-134) ng/mL
AUC, observed [7, 9]: 9100 (± 1646) ng/h/mL
Cmax, observed [7, 9]: 1773 (± 46.1) ng/mL
Cmin, observed [7, 9]: 67 (± 25) ng/mL
concentration inhibiting 90% of viral replication (IC90) (viral replication): 50 ng/mL

CCCCCOC(=O)Nc1nc(=O)n([C@@H]2CS[C@H](COC(=O)OCCCCC)O2)cc1F [prodrug 5, Pentyl (5-fluoro-2-oxo-1-((2R,5S)-2-((((pentyloxy)carbonyl)oxy)methyl)-1,3-oxathiolan-5-yl)-1,2-dihydropyrimidin-4-yl)carbamate]
melting point: 103 to 106 °C

CCOC(=O)Nc1nc(=O)n([C@@H]2CS[C@H](COC(=O)OCC)O2)cc1F [prodrug 2, Ethyl (1-((2R,5S)-2-(((ethoxycarbonyl)oxy)methyl)-1,3-oxathiolan-5-yl)-5-fluoro-2-oxo-1,2-dihydropyrimidin-4-yl)carbamate]
plasma half-life (hydrolysis of 5'-carbonate moiety) [4]: shortest

CCCCCCOC(=O)Nc1nc(=O)n([C@@H]2CS[C@H](CO)O2)cc1F [prodrug 14, Hexyl (5-fluoro-1-((2R,5S)-2-(hydroxymethyl)-1,3-oxathiolan-5-yl)-2-oxo-1,2-dihydropyrimidin-4-yl)carbamate]
melting point: 46 to 49 °C

Reference: paper PMC6441007, “Semi-solid prodrug nanoparticles for long-acting delivery of water-soluble antiretroviral drugs within combination HIV therapies” (Nature Communications, 2019)
